Measured values from ChEMBL document CHEMBL2057100, “The optimization of pyridazinone series of glucan synthase inhibitors” (Bioorg Med Chem Lett, 2012).
pIC50: −log10 of the molar value. In brackets after ≈: the same amount, converted by molar mass.

Columns and labels:
Beta-1,3-glucan synthase = target: T1, Beta-1,3-glucan synthase (Candida albicans, UniProt O13383); experiment: Inhibition of 1,3-beta-D-glucan synthase in Candida albicans BWP17 membranes; format: cell membranes
T1 sequence (O13383 whole entry): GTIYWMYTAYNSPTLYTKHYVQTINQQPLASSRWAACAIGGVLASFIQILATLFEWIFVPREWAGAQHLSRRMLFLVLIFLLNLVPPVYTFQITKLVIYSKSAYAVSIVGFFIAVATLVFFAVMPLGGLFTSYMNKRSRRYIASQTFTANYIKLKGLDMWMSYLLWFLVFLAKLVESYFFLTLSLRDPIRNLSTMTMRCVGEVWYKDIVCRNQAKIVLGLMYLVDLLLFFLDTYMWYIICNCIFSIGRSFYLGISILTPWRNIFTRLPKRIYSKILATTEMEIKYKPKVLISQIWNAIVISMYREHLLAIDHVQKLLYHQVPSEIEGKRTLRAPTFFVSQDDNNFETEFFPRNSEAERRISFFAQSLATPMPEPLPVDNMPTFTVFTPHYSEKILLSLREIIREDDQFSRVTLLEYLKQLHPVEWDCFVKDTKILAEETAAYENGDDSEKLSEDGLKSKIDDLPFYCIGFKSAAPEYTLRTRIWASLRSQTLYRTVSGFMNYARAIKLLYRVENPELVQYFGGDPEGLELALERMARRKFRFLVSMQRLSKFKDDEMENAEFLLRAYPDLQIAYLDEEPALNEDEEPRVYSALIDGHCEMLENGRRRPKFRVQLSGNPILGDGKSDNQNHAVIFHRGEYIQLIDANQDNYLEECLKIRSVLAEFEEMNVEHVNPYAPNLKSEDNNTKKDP

Nakaseomyces glabratus = experiment: Antifungal activity against Candida glabrata C624 by broth dilution method; format: functional; conditions: read-out: MIC100
Candida albicans = experiment: Antifungal activity against Candida albicans C693 by broth dilution method; format: functional; conditions: read-out: MIC100
[1] = AUC (0 to 6 hrs) in rat at 10 mg/kg, po; format: ADME, organism-based, Plasma; set-up: time < 6 hr, dose 10 mg/kg, route oral; conditions: plasma
Aspergillus fumigatus = experiment: Antifungal activity against Aspergillus fumigatus ND158 by broth dilution method; format: functional; conditions: read-out: MEC
[2] = Cmax in rat at 10 mg/kg, po; format: ADME, organism-based; set-up: dose 10 mg/kg, route oral; conditions: in vivo

Compound	pIC50 (Beta-1,3-glucan synthase)	MIC (Nakaseomyces glabratus) [µg/mL]	MIC (Candida albicans) [µg/mL]	AUC(0-t) at 6 h [1] [ng·h/mL]	Cmax [2] [ng/mL]	minimal effective concentration (Aspergillus fumigatus) [µg/mL]
O=c1c(OC2CCOCC2)c(N2CCN(S(=O)(=O)Cc3ccccc3)CC2)cnn1-c1cccc(Cl)c1	6.04	0.02 (≈ 0.0367 µM)	3.13 (≈ 5.74 µM)	–	–	–
O=c1c(OC2CCCCC2)c(N2CCN(S(=O)(=O)Cc3ccccc3)CC2)cnn1-c1cccc(Cl)c1	5.83	< 0.02	0.78 (≈ 1.44 µM)	–	–	–
O=c1c(OC2CCC(O)C2)c(N2CCN(S(=O)(=O)Cc3ccccc3)CC2)cnn1-c1cccc(Cl)c1 (stereo unspecified)	5.78	0.78 (≈ 1.43 µM)	25 (≈ 45.9 µM)	–	–	–
O=c1c(OC2CCCC2)c(N2CCN(S(=O)(=O)Cc3ccc(Cl)cc3)CC2)cnn1-c1cccc(Cl)c1	6.85	0.31 (≈ 0.55 µM)	0.63 (≈ 1.12 µM)	–	–	–
O=c1c(OC2CCCC2)c(N2CCN(S(=O)(=O)Cc3cccc(Cl)c3)CC2)cnn1-c1cccc(Cl)c1	6.80	0.05 (≈ 0.0887 µM)	1.56 (≈ 2.77 µM)	–	–	–
O=c1c(OC2CCCC2)c(N2CCN(S(=O)(=O)Cc3ccccc3)CC2)cnn1-c1cccc(Cl)c1	6.42	< 0.02	0.39 (≈ 0.737 µM)	–	–	–
Nc1ccc(CS(=O)(=O)N2CCN(c3cnn(-c4cc(F)cc(F)c4)c(=O)c3OC3CCCC3)CC2)cc1	6.96	0.26 (≈ 0.477 µM)	1.04 (≈ 1.91 µM)	8100	–	–
O=c1c(OC2CCc3cccnc32)c(N2CCN(S(=O)(=O)Cc3ccccc3)CC2)cnn1-c1cccc(Cl)c1 (stereo unspecified)	5.86	0.78 (≈ 1.35 µM)	12.5 (≈ 21.6 µM)	–	–	–
O=C(O)c1ccc(CS(=O)(=O)N2CCN(c3cnn(-c4cccc(Cl)c4)c(=O)c3OC3CCCC3)CC2)cc1	5.38	25 (≈ 43.6 µM)	> 50	–	–	–
O=c1c(OC2CCCC2)c(N2CCN(S(=O)(=O)Cc3cc(C(F)(F)F)cc(C(F)(F)F)c3)CC2)cnn1-c1cccc(Cl)c1	< 3.65	> 50	> 50	–	–	–
CC(C)(O)CCOc1c(N2CCN(S(=O)(=O)Cc3ccccc3)CC2)cnn(-c2cc(F)cc(F)c2)c1=O	6.25	0.78 (≈ 1.42 µM)	25 (≈ 45.6 µM)	–	–	–
O=c1c(OC2CCCC2)c(N2CCN(S(=O)(=O)Cc3ccccc3)CC2)cnn1-c1cc(F)cc(F)c1	7.25	0.4 (≈ 0.754 µM)	0.39 (≈ 0.735 µM)	–	–	–
O=c1c(OC2CCCC2)c(N2CCN(S(=O)(=O)Cc3cccc(F)c3)CC2)cnn1-c1cc(F)cc(F)c1	7.14	< 0.02	0.1 (≈ 0.182 µM)	–	–	–
O=c1c(OC2CCCC2)c(N2CCN(S(=O)(=O)Cc3ccc(F)cc3)CC2)cnn1-c1cccc(Cl)c1	6.96	0.05 (≈ 0.0914 µM)	1.56 (≈ 2.85 µM)	–	–	–
O=c1c(OCCc2ccccn2)c(N2CCN(S(=O)(=O)Cc3ccccc3)CC2)cnn1-c1cccc(Cl)c1	5.97	0.39 (≈ 0.689 µM)	6.25 (≈ 11 µM)	–	–	–
O=c1c(OC2CCCC2)c(N2CCN(S(=O)(=O)Cc3ccncc3)CC2)cnn1-c1cc(F)cc(F)c1	6.25	0.2 (≈ 0.376 µM)	3.1 (≈ 5.83 µM)	20	–	–
O=c1c(OC2CCCc3ncccc32)c(N2CCN(S(=O)(=O)Cc3ccccc3)CC2)cnn1-c1cccc(Cl)c1 (stereo unspecified)	5.17	1.6 (≈ 2.7 µM)	> 50	–	–	–
Nc1cccc(CS(=O)(=O)N2CCN(c3cnn(-c4cc(F)cc(F)c4)c(=O)c3OC3CCCC3)CC2)c1	6.89	0.13 (≈ 0.238 µM)	0.52 (≈ 0.953 µM)	5700	–	–
O=c1c(OC2CCCC2)c(N2CCN(S(=O)(=O)Cc3ccccc3F)CC2)cnn1-c1cccc(Cl)c1	7.14	0.2 (≈ 0.366 µM)	0.39 (≈ 0.713 µM)	–	–	–
O=c1c(OC2CCCC2)c(N2CCN(S(=O)(=O)Cc3cc(Cl)cc(Cl)c3)CC2)cnn1-c1cccc(Cl)c1	6.45	0.39 (≈ 0.652 µM)	> 50	–	–	–

Now from value to molecule, other results behind:

pIC50 (Beta-1,3-glucan synthase)	MIC (Nakaseomyces glabratus) [µg/mL]	MIC (Candida albicans) [µg/mL]	AUC(0-t) at 6 h [1] [ng·h/mL]	Cmax [2] [ng/mL]	Compound	minimal effective concentration (Aspergillus fumigatus) [µg/mL]
6.20	0.52 (≈ 0.85 µM)	> 33	640	440	CC1(COc2c(N3CCN(S(=O)(=O)Cc4ccc(N)c(C(F)(F)F)c4)CC3)cnn(-c3cccc(Cl)c3)c2=O)CC1	> 33
6.56	1.04 (≈ 1.91 µM)	16.7 (≈ 30.6 µM)	–	–	CC1(COc2c(N3CCN(S(=O)(=O)Cc4ccnc(N)c4)CC3)cnn(-c3cccc(Cl)c3)c2=O)CC1	8.4
6.62	0.06 (≈ 0.11 µM)	2.08 (≈ 3.82 µM)	5200	1700	CC1(COc2c(N3CCN(S(=O)(=O)Cc4cccnc4N)CC3)cnn(-c3cccc(Cl)c3)c2=O)CC1	8.4
7.06	0.06 (≈ 0.105 µM)	0.26 (≈ 0.454 µM)	–	–	CN(C)c1ccc(CS(=O)(=O)N2CCN(c3cnn(-c4cccc(Cl)c4)c(=O)c3OCC3(C)CC3)CC2)cc1	16.7
7.26	< 0.02	0.2 (≈ 0.366 µM)	–	–	O=c1c(OCC2(CF)CC2)c(N2CCN(S(=O)(=O)Cc3ccccc3)CC2)cnn1-c1cccc(Cl)c1	–
7.75	0.78 (≈ 1.4 µM)	0.2 (≈ 0.358 µM)	–	–	CNc1ccc(CS(=O)(=O)N2CCN(c3cnn(-c4cccc(Cl)c4)c(=O)c3OCC3(C)CC3)CC2)cc1	> 50
6.50	0.13 (≈ 0.227 µM)	4.2 (≈ 7.34 µM)	9400	2300	CCc1cc(CS(=O)(=O)N2CCN(c3cnn(-c4cccc(Cl)c4)c(=O)c3OCC3(C)CC3)CC2)ccc1N	4.2
7.27	0.06 (≈ 0.106 µM)	0.26 (≈ 0.461 µM)	890	310	CC1(COc2c(N3CCN(S(=O)(=O)Cc4ccc(N)c(F)c4)CC3)cnn(-c3cc(F)cc(F)c3)c2=O)CC1	2.08
6.98	0.06 (≈ 0.105 µM)	0.52 (≈ 0.906 µM)	13100	3300	COc1cc(CS(=O)(=O)N2CCN(c3cnn(-c4cccc(Cl)c4)c(=O)c3OCC3(C)CC3)CC2)ccc1N	2.08
6.29	8.34 (≈ 14.2 µM)	> 33	–	–	CC1(COc2c(N3CCN(S(=O)(=O)Cc4ccc(N)c(C(N)=O)c4)CC3)cnn(-c3cccc(Cl)c3)c2=O)CC1	> 33
6.96	0.26 (≈ 0.478 µM)	1.04 (≈ 1.91 µM)	8100	1900	CC1(COc2c(N3CCN(S(=O)(=O)Cc4ccc(N)cc4)CC3)cnn(-c3cccc(Cl)c3)c2=O)CC1	4.2
7.04	0.2 (≈ 0.368 µM)	0.78 (≈ 1.43 µM)	–	–	Nc1ccc(CS(=O)(=O)N2CCN(c3cnn(-c4cccc(Cl)c4)c(=O)c3OC3CCCC3)CC2)cc1	–
6.90	0.13 (≈ 0.232 µM)	1.04 (≈ 1.86 µM)	14500	3500	Cc1cc(CS(=O)(=O)N2CCN(c3cnn(-c4cc(F)cc(F)c4)c(=O)c3OCC3(C)CC3)CC2)ccc1N	4.2
6.20	16.7 (≈ 28.5 µM)	> 33	2100	700	CC(C)c1cc(CS(=O)(=O)N2CCN(c3cnn(-c4cccc(Cl)c4)c(=O)c3OCC3(C)CC3)CC2)ccc1N	> 33
7.25	< 0.02	0.1 (≈ 0.189 µM)	–	–	CC1(COc2c(N3CCN(S(=O)(=O)Cc4ccccc4)CC3)cnn(-c3cccc(Cl)c3)c2=O)CC1	–
